Experimental data from article PMC5820112 (Journal of molecular and cellular cardiology, 2017).

How the values were obtained:
[1] = molecular target: T1, CaMKIIδ (Ca2+/calmodulin-dependent protein kinase II delta) (Homo sapiens, UniProt Q13557); test: continuous coupled spectrophotometric kinase assay with autocamtide-3; format: biochemical
[2] = molecular target: T1, CaMKIIδ (Ca2+/calmodulin-dependent protein kinase II delta); test: as above; format: biochemical; remark: listed apart in the source

T1 sequence (Q13557 2-499): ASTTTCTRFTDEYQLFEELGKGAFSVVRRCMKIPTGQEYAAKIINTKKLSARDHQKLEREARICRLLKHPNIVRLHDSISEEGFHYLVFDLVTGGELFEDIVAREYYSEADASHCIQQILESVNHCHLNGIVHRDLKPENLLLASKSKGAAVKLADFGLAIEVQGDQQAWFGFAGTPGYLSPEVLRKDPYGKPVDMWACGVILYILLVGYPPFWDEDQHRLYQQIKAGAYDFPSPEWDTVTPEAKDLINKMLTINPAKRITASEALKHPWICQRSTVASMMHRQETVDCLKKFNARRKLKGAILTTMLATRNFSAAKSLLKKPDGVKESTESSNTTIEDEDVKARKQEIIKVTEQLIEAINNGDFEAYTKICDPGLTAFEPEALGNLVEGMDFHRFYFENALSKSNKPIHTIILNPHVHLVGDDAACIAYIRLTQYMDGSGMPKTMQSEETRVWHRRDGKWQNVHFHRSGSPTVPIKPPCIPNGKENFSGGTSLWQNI

IC50 [1] | Molecule | Ki [2]
1400 nM | COc1ccc(S(=O)(=O)N(CCO)c2ccccc2CN(C)C/C=C/c2ccc(Cl)cc2)cc1 [KN-93] | –
– | AS105 | 3 nM
